We go through two compounds from PMC5918173, “Characterization of Transglutaminase 2 activity inhibitors in monocytes in vitro and their effect in a mouse model for multiple sclerosis” (PLoS ONE, 2018).

Assay [1] has as its target T1, TG2-fibronectin (FN42) interaction (Homo sapiens, UniProt P21980).
T1 construct: purchased Zedira
T1 sequence (P21980 1-687): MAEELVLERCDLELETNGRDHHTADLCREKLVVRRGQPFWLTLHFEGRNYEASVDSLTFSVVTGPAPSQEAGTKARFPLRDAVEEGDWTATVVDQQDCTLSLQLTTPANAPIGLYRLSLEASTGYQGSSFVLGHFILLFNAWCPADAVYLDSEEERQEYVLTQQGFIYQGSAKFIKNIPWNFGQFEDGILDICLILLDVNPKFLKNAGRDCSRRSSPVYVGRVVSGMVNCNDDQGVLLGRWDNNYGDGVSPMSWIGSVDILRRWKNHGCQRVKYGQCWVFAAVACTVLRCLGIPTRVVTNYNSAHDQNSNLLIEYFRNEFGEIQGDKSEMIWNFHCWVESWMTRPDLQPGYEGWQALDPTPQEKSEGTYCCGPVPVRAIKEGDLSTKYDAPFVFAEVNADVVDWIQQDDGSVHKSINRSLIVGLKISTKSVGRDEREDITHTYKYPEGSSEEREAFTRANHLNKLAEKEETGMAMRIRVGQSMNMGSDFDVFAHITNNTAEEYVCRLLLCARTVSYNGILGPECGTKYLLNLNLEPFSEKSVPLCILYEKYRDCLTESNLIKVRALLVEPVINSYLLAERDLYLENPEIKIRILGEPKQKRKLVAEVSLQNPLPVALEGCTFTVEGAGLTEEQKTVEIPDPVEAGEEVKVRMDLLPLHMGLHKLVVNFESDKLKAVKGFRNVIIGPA
As to the kind of experiment: TG2 interaction with fibronectin (FN42) ELISA. It is filed as binding. The note with it: 5 and 15 μM, with or without 1 mM CaCl2, Fig 2E, 2F. How it is done: To determine the potential effect of BJJF078 and ERW1041E on the interaction of TG2 with fibronectin, ELISA experiments were performed as described previously. Briefly, 96 well ELISA plates (Nunc, Maxisorp) were coated with 100 μg/ml mouse anti his-tag monoclonal antibody (Roche) in PBS at 4°C overnight. This was followed by simultaneous washing and blocking with 0.5% BSA in PBS (3x 10 min). Per well 50 μl of a 10 nM human recombinant TG2 (his-tagged, Zedira) solution in PBS was added. Into each well (triplicates) either DMSO (control, 1% final concentration) or TG2 inhibitors (BJJF078, ERW1041E, final concentration 5 and 15 μM in 1% DMSO) were added. As a positive control similar concentrations of TG53, a small molecule that inhibits the interaction between TG2 and fibronectin was added (kindly provided by Prof D. Matei, Northwestern University, Chicago, USA). […] After 1 h incubation at RT, 50 μl of 10 nM FN42-biotin solution (kindly provided by Prof D. Matei) was added to the wells. After an additional 1 h incubation at RT and washing steps (3x 10 min) with 0.5% BSA in PBS, 100 μl streptavidin-HRPO conjugate (from kit opr001, Covalab) was added and incubated for 1 h at RT. This was followed by another series of washes and the colour reaction started with 100 μl of 3,3′,5,5′ tetramethylbenzidine substrate (TMB, from kit opr001, Covalab). After sufficient colour development (15 min), the reaction was stopped with 1M HCl and absorbance was measured at 450 nm.
In general terms: An ELISA detects its analyte on a solid surface through an enzyme-linked reagent.

Assay [2] has as its target T2, recombinant human TG2 (hTG2) (Homo sapiens, UniProt P21980).
T2 construct: purchased Zedira
T2 sequence (P21980 1-687): T1 sequence (P21980 1-687)
As to the kind of experiment: Inhibition of recombinant Transglutaminase activity (fluorescent substrate), human TG2. It is filed as biochemical. The note with it: recombinant human TG2, Fig 2A. How it is done:
(§1) The potency and specificity of TG2 inhibitors was assessed with various recombinant TGs, as previously described. The reaction buffer (50 mM Tris, 100 mM NaCl, 10 mM CaCl2, 5 mM H-Gly-OMe*HCl (glycinemethylestherhydrochloride, Sigma), 5 mM hexadimethinbromide (Sigma), 9.1 mM DTT, pH 7.5) was heated to 37°C in a 96 well plate. Then 50 μM of the TG substrate Abz-NE(CAD-DNP)EQVSPLTLLK-OH (Zedira) was added. 1 μg/ml recombinant TG (human TG1, human (hTG2) / mouse TG2 (mTG2) or human Factor XIII (FXIII); Zedira) were added. The two lyophilized TG2 inhibitors (see Fig 1 for chemical structure) BJJF078 (3,4-Dimethoxy-N-(5-[4-(acryloylamino)piperidine-1-sulfonyl]-naphthalen-1-yl)-benzamide, kindly provided by Dr S. El Alaoui, Covalab, France) and ERW1041E (2-[(3-Bromo-4,5-dihydro-isoxazol-5-ylmethyl)-carbamoyl]-pyrrolidine-1—carboxylic acid quinolin-3-ylmethyl ester, kindly provided by Prof C. Khosla, Stanford University, USA) were dissolved in DMSO (stock solution: 54 mM) and stored at -80°C. These stocks were further diluted and various concentrations of the TG2 inhibitors (0.3 nM to 100 μM), were added to the wells (final DMSO concentration per well: 0.06%). The relative increase in fluorescence emission, correlating with enzymatic activity, was measured over 4 h with a fluorimeter (Excitation: 320nm, emission: 405 nm; Fluostar, GMB).

Assay [3] deals with T3, human Factor XIII (FXIII) (Homo sapiens, UniProt P00488).
T3 construct: purchased Zedira
T3 sequence (P00488 1-732): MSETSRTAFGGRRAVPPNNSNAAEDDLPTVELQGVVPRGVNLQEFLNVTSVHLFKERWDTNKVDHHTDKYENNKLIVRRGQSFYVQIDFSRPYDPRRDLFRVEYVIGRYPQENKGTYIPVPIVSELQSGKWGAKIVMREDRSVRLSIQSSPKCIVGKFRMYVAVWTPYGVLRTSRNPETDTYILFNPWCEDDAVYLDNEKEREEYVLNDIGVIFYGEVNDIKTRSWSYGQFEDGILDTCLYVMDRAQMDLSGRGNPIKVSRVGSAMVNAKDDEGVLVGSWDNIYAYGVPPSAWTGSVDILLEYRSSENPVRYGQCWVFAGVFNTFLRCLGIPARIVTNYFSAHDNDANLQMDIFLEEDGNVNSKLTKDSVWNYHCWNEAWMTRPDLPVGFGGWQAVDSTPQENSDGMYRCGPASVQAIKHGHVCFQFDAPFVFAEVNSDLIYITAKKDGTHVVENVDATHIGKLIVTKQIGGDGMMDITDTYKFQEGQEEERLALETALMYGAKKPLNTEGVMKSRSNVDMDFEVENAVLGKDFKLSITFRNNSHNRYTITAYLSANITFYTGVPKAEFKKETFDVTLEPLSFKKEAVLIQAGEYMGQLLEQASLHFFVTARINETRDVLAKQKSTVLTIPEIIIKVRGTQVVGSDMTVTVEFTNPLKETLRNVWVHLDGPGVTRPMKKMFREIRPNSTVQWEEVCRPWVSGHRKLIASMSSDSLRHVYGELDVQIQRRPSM
As to the kind of experiment: Inhibition of recombinant Transglutaminase activity (fluorescent substrate), human Factor XIII. The note with it: Fig 2C, read-out: IC50 to inhibit FXIII activity. It is filed as biochemical. The protocol:
as §1

As for `C=CC(=O)NC1CCN(S(=O)(=O)c2cccc3c(NC(=O)c4ccc(OC)c(OC)c4)cccc23)CC1` [BJJF078, 3,4-Dimethoxy-N-(5-[4-(acryloylamino)piperidine-1-sulfonyl]-naphthalen-1-yl)-benzamide], the “effect on binding of TG2 to fibronectin (FN42)” value in assay [1] was “did not interfere”. In addition, the results for the IC50 in assay [2] and in assay [3] were 41 nM and 22 µM, respectively.
Taken in the same sequence, the figures for `O=C(NCC1CC(Br)=NO1)C1CCCN1C(=O)OCc1cnc2ccccc2c1` (stereo not drawn) [ERW1041E, 2-[(3-Bromo-4,5-dihydro-isoxazol-5-ylmethyl)-carbamoyl]-pyrrolidine-1—carboxylic acid quinolin-3-ylmethyl ester] were “did not interfere”, 1600 nM and 52 µM.

In general, IC50 refers to the concentration that gives 50% inhibition.
